From ChEMBL document CHEMBL4346705, “(±)-trans-Dihydronarciclasine and (±)-trans-dihydrolycoricidine analogues modified in their ring A: Evaluation of their anticancer activity and a SAR study” (2019)

Assays:
Type in all cases: functional
[1] = test system: NCI/ADR-RES; experiment: Antiproliferative activity against human NCI-ADR-RES cells assessed as cell viability at 10^-5 M incubated for 48 hrs by sulforhodamine B assay relative to control; conditions: read-out: Activity
[2] = test system: DU-145; experiment: Antiproliferative activity against human DU145 cells assessed as cell viability at 10^-5 M incubated for 48 hrs by sulforhodamine B assay relative to control; conditions: DU-145, 48 h, read-out: Activity
[3] = test system: T47D; experiment: Antiproliferative activity against human T47D cells assessed as cell viability at 10^-5 M incubated for 48 hrs by sulforhodamine B assay relative to control; conditions: read-out: Activity
[4] = test system: HOP-62; experiment: Antiproliferative activity against human HOP62 cells assessed as cell viability at 10^-5 M incubated for 48 hrs by sulforhodamine B assay relative to control; conditions: HOP-62, 48 h, read-out: Activity
[5] = test system: ACHN; experiment: Antiproliferative activity against human ACHN cells assessed as cell viability at 10^-5 M incubated for 48 hrs by sulforhodamine B assay relative to control; conditions: read-out: Activity
[6] = test system: SF-295; experiment: Antiproliferative activity against human SF295 cells assessed as cell viability at 10^-5 M incubated for 48 hrs by sulforhodamine B assay relative to control; conditions: SF-295, 48 h, read-out: Activity
[7] = test system: SW-620; experiment: Antiproliferative activity against human SW620 cells assessed as cell viability at 10^-5 M incubated for 48 hrs by sulforhodamine B assay relative to control; conditions: SW-620, 48 h, read-out: Activity
[8] = test system: NCI-H226; experiment: Antiproliferative activity against human NCI-H226 cells assessed as cell viability at 10^-5 M incubated for 48 hrs by sulforhodamine B assay relative to control; conditions: NCI-H226, 48 h, read-out: Activity
[9] = test system: SR; experiment: Antiproliferative activity against human SR cells assessed as cell viability at 10^-5 M incubated for 48 hrs by sulforhodamine B assay relative to control; conditions: read-out: Activity
[10] = test system: RPMI-8226; experiment: Antiproliferative activity against human RPMI8226 cells assessed as cell viability at 10^-5 M incubated for 48 hrs by sulforhodamine B assay relative to control; conditions: RPMI-8226, 48 h, read-out: Activity
[11] = test system: M14; experiment: Antiproliferative activity against human M14 cells assessed as cell viability at 10^-5 M incubated for 48 hrs by sulforhodamine B assay relative to control; conditions: M14, 48 h, read-out: Activity
[12] = test system: OVCAR-8; experiment: Antiproliferative activity against human OVCAR8 cells assessed as cell viability at 10^-5 M incubated for 48 hrs by sulforhodamine B assay relative to control; conditions: OVCAR-8, 48 h, read-out: Activity
[13] = test system: HL-60(TB); experiment: Antiproliferative activity against human HL-60(TB) cells assessed as cell viability at 10^-5 M incubated for 48 hrs by sulforhodamine B assay relative to control; conditions: HL-60, 48 h, read-out: Activity
[14] = test system: MOLT-4; experiment: Antiproliferative activity against human MOLT4 cells assessed as cell viability at 10^-5 M incubated for 48 hrs by sulforhodamine B assay relative to control; conditions: MOLT-4, 48 h, read-out: Activity
[15] = test system: NCI-H322M; experiment: Antiproliferative activity against human NCI-H322M cells assessed as cell viability at 10^-5 M incubated for 48 hrs by sulforhodamine B assay relative to control; conditions: read-out: Activity
[16] = test system: IGROV-1; experiment: Antiproliferative activity against human IGROV1 cells assessed as cell viability at 10^-5 M incubated for 48 hrs by sulforhodamine B assay relative to control; conditions: IGROV-1, 48 h, read-out: Activity
[17] = test system: EKVX; experiment: Antiproliferative activity against human EKVX cells assessed as cell viability at 10^-5 M incubated for 48 hrs by sulforhodamine B assay relative to control; conditions: read-out: Activity
[18] = test system: SF-539; experiment: Antiproliferative activity against human SF539 cells assessed as cell viability at 10^-5 M incubated for 48 hrs by sulforhodamine B assay relative to control; conditions: SF-539, 48 h, read-out: Activity
[19] = test system: OVCAR-3; experiment: Antiproliferative activity against human OVCAR3 cells assessed as cell viability at 10^-5 M incubated for 48 hrs by sulforhodamine B assay relative to control; conditions: OVCAR-3, 48 h, read-out: Activity
[20] = test system: KM12; experiment: Antiproliferative activity against human KM12 cells assessed as cell viability at 10^-5 M incubated for 48 hrs by sulforhodamine B assay relative to control; conditions: KM12, 48 h, read-out: Activity
[21] = test system: TK-10; experiment: Antiproliferative activity against human TK10 cells assessed as cell viability at 10^-5 M incubated for 48 hrs by sulforhodamine B assay relative to control; conditions: TK-10, 48 h, read-out: Activity
[22] = test system: HCC 2998; experiment: Antiproliferative activity against human HCC2998 cells assessed as cell viability at 10^-5 M incubated for 48 hrs by sulforhodamine B assay relative to control; conditions: HCC 2998, 48 h, read-out: Activity
[23] = test system: SK-MEL-2; experiment: Antiproliferative activity against human SK-MEL-2 cells assessed as cell viability at 10^-5 M incubated for 48 hrs by sulforhodamine B assay relative to control; conditions: SK-MEL-2, 48 h, read-out: Activity
[24] = test system: Hs-578T; experiment: Antiproliferative activity against human Hs 578T cells assessed as cell viability at 10^-5 M incubated for 48 hrs by sulforhodamine B assay relative to control; conditions: read-out: Activity
[25] = test system: SNB-75; experiment: Antiproliferative activity against human SNB75 cells assessed as cell viability at 10^-5 M incubated for 48 hrs by sulforhodamine B assay relative to control; conditions: SNB-75, 48 h, read-out: Activity
[26] = test system: MCF7; experiment: Antiproliferative activity against human MCF7 cells assessed as cell viability at 10^-5 M incubated for 48 hrs by sulforhodamine B assay relative to control; conditions: MCF7, 48 h, read-out: Activity
[27] = test system: SF-268; experiment: Antiproliferative activity against human SF268 cells assessed as cell viability at 10^-5 M incubated for 48 hrs by sulforhodamine B assay relative to control; conditions: SF-268, 48 h, read-out: Activity
[28] = test system: SN12C; experiment: Antiproliferative activity against human SN12C cells assessed as cell viability at 10^-5 M incubated for 48 hrs by sulforhodamine B assay relative to control; conditions: read-out: Activity
[29] = test system: UO-31; experiment: Antiproliferative activity against human UO31 cells assessed as cell viability at 10^-5 M incubated for 48 hrs by sulforhodamine B assay relative to control; conditions: UO-31, 48 h, read-out: Activity
[30] = test system: CCRF-CEM; experiment: Antiproliferative activity against human CCRF-CEM cells assessed as cell viability at 10^-5 M incubated for 48 hrs by sulforhodamine B assay relative to control; conditions: read-out: Activity
[31] = test system: PC-3; experiment: Antiproliferative activity against human PC3 cells assessed as cell viability at 10^-5 M incubated for 48 hrs by sulforhodamine B assay relative to control; conditions: PC-3, 48 h, read-out: Activity
[32] = test system: NCI-H522; experiment: Antiproliferative activity against human NCI-H522 cells assessed as cell viability at 10^-5 M incubated for 48 hrs by sulforhodamine B assay relative to control; conditions: NCI-H522, 48 h, read-out: Activity
[33] = test system: MDA-MB-435; experiment: Antiproliferative activity against human MDA-MB-435 cells assessed as cell viability at 10^-5 M incubated for 48 hrs by sulforhodamine B assay relative to control; conditions: MDA-MB-435, 48 h, read-out: Activity

SMILES	viability at 10 µM [1]	viability at 10 µM [2]	viability at 10 µM [3]	viability at 10 µM [4]	viability at 10 µM [5]	viability at 10 µM [6]	viability at 10 µM [7]	viability at 10 µM [8]	viability at 10 µM [9]	viability at 10 µM [10]	viability at 10 µM [11]	viability at 10 µM [12]	viability at 10 µM [13]	viability at 10 µM [14]	viability at 10 µM [15]	viability at 10 µM [16]	viability at 10 µM [17]	viability at 10 µM [18]	viability at 10 µM [19]	viability at 10 µM [20]	other results
O=C1NC2C(CC(O)C(O)C2O)c2cc3c(c(O)c21)OCO3 (racemic)	1.95%	-19.1%	-8.46%	-18.9%	-45.5%	-11.5%	-0.05%	-38.3%	6.14%	-24.2%	-81.7%	-7.71%	-37.8%	-6.14%	-14.7%	-7.85%	-26.3%	-29.7%	-10.8%	-11.5%	viability at 10 µM [21]: -12.6%; viability at 10 µM [22]: -22.8%; viability at 10 µM [23]: -63.6%; viability at 10 µM [24]: -14.2%; viability at 10 µM [25]: -25.3%; viability at 10 µM [26]: 1.73%; viability at 10 µM [27]: -4.43%; viability at 10 µM [28]: -18.4%; viability at 10 µM [29]: -31%; viability at 10 µM [30]: 2.84%; viability at 10 µM [31]: -8.66%; viability at 10 µM [32]: -32.6%; viability at 10 µM [33]: -42.2%
COc1cc2c(c3c1OCCO3)C(=O)NC1C2CC(O)C(O)C1O (racemic)	111%	103%	87.9%	100%	108%	104%	107%	95.7%	97.1%	100%	104%	95.2%	96.7%	105%	97.3%	107%	103%	105%	101%	95%	viability at 10 µM [21]: 98%; viability at 10 µM [22]: 99.9%; viability at 10 µM [23]: 110%; viability at 10 µM [24]: 99.8%; viability at 10 µM [25]: 100%; viability at 10 µM [26]: 97.3%; viability at 10 µM [27]: 98.3%; viability at 10 µM [28]: 99.8%; viability at 10 µM [29]: 89.8%; viability at 10 µM [30]: 103%; viability at 10 µM [31]: 95.3%; viability at 10 µM [32]: 93%; viability at 10 µM [33]: 110%
